In paper PMC9870012 (Journal of Enzyme Inhibition and Medicinal Chemistry, 2023):

Legend:
ADAM10 = biological target: T1, ADAM10 (Homo sapiens, UniProt O14672); test: Off-target metalloprotease inhibition, ADAM10; type: biochemical; conditions: read-out: Residual activity ADAM10
T1 sequence (O14672 214-748): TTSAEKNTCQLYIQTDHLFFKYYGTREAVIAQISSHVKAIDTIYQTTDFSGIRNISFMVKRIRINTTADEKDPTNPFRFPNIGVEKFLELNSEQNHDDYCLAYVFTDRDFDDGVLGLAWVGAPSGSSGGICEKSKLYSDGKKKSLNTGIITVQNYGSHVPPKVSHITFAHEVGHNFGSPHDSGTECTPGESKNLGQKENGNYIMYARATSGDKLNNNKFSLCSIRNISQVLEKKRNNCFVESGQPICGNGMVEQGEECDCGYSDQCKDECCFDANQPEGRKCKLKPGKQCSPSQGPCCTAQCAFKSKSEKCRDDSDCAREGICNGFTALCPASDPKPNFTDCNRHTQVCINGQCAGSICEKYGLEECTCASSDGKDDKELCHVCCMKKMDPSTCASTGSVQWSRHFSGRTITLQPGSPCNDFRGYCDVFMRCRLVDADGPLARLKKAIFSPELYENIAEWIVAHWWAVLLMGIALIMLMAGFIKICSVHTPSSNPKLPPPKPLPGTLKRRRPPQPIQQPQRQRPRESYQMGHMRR

ADAM17 = ADAM17 (Homo sapiens, UniProt P78536); test: Off-target metalloprotease inhibition, ADAM17; type: biochemical; conditions: read-out: Residual activity ADAM17
ADAM17, sequence (P78536 215-824): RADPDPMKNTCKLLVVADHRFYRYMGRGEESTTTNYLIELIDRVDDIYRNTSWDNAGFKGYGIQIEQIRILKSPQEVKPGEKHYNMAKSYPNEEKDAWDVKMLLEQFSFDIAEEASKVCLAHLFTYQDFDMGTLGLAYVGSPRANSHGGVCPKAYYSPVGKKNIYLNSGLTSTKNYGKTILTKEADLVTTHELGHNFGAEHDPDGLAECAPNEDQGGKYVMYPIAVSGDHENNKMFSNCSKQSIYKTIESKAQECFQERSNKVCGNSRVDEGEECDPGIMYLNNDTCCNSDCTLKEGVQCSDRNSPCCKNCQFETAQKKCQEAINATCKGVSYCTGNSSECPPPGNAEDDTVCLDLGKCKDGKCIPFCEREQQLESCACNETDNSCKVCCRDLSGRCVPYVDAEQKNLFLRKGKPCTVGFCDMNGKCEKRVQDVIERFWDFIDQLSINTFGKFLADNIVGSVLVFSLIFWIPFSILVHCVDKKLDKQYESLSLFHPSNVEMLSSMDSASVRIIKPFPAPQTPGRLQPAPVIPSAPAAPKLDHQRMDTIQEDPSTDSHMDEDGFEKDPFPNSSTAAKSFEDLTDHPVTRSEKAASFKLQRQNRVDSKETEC

MMP2 = biological target: T2, MMP2 (Homo sapiens, UniProt P08253); test: Off-target metalloprotease inhibition, MMP2; type: biochemical; conditions: read-out: Residual activity MMP2
T2 sequence (P08253 110-660): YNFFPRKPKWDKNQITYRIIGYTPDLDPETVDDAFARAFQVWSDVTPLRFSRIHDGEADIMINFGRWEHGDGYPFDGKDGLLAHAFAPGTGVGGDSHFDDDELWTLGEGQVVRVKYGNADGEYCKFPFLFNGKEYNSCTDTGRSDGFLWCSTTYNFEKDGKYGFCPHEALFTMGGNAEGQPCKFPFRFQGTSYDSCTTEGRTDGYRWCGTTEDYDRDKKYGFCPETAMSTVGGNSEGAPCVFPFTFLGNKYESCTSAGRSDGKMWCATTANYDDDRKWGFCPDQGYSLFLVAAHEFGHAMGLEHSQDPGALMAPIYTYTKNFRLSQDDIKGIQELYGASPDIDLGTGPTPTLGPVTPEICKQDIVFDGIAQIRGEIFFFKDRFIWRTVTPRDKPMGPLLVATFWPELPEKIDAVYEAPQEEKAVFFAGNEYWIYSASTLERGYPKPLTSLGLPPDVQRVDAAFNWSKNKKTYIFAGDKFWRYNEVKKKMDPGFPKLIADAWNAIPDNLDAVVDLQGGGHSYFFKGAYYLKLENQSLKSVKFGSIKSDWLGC

MMP9 = MMP9 (Homo sapiens, UniProt P14780); test: Off-target metalloprotease inhibition, MMP9; type: biochemical; conditions: read-out: Residual activity MMP9
MMP9, sequence (P14780 107-707 limits assumed): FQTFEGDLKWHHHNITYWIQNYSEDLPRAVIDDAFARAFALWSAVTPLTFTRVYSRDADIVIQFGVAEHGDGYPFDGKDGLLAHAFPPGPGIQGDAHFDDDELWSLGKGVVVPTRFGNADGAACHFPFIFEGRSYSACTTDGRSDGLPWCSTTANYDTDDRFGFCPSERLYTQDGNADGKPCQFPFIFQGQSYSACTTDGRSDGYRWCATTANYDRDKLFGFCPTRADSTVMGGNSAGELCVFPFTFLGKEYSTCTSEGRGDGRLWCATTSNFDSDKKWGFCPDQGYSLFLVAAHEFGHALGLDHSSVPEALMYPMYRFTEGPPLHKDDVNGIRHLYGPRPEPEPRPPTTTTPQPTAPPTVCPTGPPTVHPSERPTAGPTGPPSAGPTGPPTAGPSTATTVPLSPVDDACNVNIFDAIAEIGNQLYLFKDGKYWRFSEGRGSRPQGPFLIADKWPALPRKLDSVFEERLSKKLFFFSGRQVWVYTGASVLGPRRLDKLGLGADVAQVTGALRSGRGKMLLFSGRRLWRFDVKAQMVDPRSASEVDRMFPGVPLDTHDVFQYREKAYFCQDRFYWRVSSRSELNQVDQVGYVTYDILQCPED

Cell viability assay [1] = type: cell-based; conditions: human, SH-SY5Y cells
MMP13 = MMP13 (Homo sapiens, UniProt P45452); test: Off-target metalloprotease inhibition, MMP13; type: biochemical; conditions: read-out: Residual activity MMP13
Cell viability assay [2] = type: cell-based; conditions: human, Hep-G2 cells
human meprin β = biological target: T3, human meprin β (Homo sapiens, UniProt Q16820); type: biochemical; conditions: for Ki: Ki(app) Meprin β, geometric mean of three independent experiments with standard deviation factor
T3 sequence (Q16820 62-701): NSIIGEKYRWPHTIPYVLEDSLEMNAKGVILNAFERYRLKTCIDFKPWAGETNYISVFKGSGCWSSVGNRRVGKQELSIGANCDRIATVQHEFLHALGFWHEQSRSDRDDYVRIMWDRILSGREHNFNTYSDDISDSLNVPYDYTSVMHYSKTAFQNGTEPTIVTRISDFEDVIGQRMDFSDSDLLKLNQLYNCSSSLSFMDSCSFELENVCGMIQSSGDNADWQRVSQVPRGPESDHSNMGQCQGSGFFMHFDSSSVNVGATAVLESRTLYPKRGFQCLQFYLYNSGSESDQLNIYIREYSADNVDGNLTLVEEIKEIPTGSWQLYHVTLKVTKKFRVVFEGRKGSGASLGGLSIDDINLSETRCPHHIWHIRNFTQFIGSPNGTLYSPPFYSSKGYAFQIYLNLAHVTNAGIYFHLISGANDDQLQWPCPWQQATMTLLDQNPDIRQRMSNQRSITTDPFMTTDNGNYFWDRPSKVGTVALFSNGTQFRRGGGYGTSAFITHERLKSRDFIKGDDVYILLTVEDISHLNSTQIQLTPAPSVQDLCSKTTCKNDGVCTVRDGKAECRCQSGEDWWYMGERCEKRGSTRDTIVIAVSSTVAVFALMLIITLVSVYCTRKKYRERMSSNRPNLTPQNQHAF

human meprin α = biological target: T4, human meprin α (Homo sapiens, UniProt Q16819); type: biochemical; conditions: for Ki: Ki(app) Meprin α, geometric mean of three independent experiments with standard deviation factor; for SF: selectivity factor (Ki(app) meprin β/Ki(app) meprin α): meprin α over meprin β
T4 sequence (Q16819 66-746): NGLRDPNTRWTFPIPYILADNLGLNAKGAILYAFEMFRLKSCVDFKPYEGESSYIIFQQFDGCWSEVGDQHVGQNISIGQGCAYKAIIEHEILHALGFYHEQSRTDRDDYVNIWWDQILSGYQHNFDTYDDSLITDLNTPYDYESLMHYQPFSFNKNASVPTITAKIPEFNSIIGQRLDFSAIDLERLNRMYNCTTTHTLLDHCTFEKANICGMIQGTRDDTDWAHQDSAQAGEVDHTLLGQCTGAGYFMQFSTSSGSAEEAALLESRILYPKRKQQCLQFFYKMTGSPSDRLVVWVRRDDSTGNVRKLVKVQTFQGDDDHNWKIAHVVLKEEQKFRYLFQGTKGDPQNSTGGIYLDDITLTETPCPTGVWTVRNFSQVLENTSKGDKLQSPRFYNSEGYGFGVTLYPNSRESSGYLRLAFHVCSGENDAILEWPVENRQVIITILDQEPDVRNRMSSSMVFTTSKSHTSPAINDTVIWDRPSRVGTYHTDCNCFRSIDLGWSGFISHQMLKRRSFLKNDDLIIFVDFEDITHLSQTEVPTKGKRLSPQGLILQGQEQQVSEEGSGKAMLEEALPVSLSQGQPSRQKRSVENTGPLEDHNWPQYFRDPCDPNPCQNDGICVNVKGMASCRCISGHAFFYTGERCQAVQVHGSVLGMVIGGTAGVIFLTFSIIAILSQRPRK

MMPs and ADAMs = test: Off-target metalloprotease panel; type: biochemical, human; conditions: 10 µM inhibitor concentration

Row | SMILES | remaining activity at 10 µM (ADAM10) | remaining activity at 10 µM (ADAM17) | remaining activity at 10 µM (MMP2) | remaining activity at 10 µM (MMP9) | viability at 24 h, 30 µM (Cell viability assay [1]) | remaining activity at 10 µM (MMP13) | viability at 24 h, 30 µM (Cell viability assay [2]) | Ki (human meprin β) | fold increase in potency against meprin β (human meprin β; compared to 21e) | Ki (human meprin α) | SF: selectivity factor (Ki(app) meprin β/Ki(app) meprin α) (human meprin α) | residual activities of the respective MMPs and ADAMs (MMPs and ADAMs)
1 | O=C(Cc1c(-c2ccccc2)nn(Cc2ccc(C(=O)O)cc2)c1-c1ccccc1)NO [21h, 4-[[4-[2-(Hydroxyamino)-2-oxo-ethyl]-3,5-diphenyl-pyrazol-1-yl]methyl]benzoic acid] | 91% | 67% | 85% | 80% | 88% | 86% | 103% | 9.4 nM | 30 fold | 0.4 nM | 24 | –
2 | O=C(Cc1c(-c2cc(F)c(O)c(Cl)c2)n[nH]c1-c1ccccc1)NO [14m, 2-[3-(3-Chloro-5-fluoro-4-hydroxyphenyl)-5-phenyl-1H-pyrazol-4-yl]ethanehydroxamic acid] | 104% | 68% | 66% | 86% | 86% | 88% | 103% | 0.4 nM | – | 0.1 nM | 3 | –
3 | O=C(Cc1c(-c2cccc(C(=O)O)c2)n[nH]c1-c1cc(F)c(O)c(Cl)c1)NO [16j, 3-[5-(3-Chloro-5-fluoro-4-hydroxy-phenyl)-4-[2-(hydroxyamino)-2-oxo-ethyl]-1H-pyrazol-3-yl]benzoic acid] | 90% | 99% | 95% | 94% | 110% | 105% | 98% | 0.2 nM | – | 0.1 nM | 2 | above 90%
